Read-outs that look alike come from different tables or passages of the source.
Experiments:
[1] = biological target: Cys242 in human PIK3CA (157-299) (Homo sapiens (Human), UniProt P42336); assay: Covalent modification assay using MALDI-TOF MS; format: biochemical; settings: 4 h reaction time point
Method in brief: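 PIK3CA (157-299), 3.33 or 1 μM in 20 mM HEPES, 150 mM NaCl, 2 mM MgCl2, pH 7.3, was incubated with compound at room temperature in the dark for 15 min, 30 min, 2 h or 4 h. Linear MALDI-TOF read-out; % modification = adduct peak height over summed heights of all protein species.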

[2] = test system: pAKT in BT474 cells; assay: Cell-based pAKT HTRF assay in BT474 cells; settings: BT474 cells, 4 hr incubation, read-out: pAKT inhibition IC50 in BT474 cells
Method in brief: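 BT474 cells in DMEM/10% FBS were treated the day after seeding with a 9-point, 3-fold compound series from 3 μM (0.25% DMSO) for 4 hr. Lysates were mixed with d2 and Eu cryptate anti-pAKT antibodies and incubated 4-24 h at room temperature. HTRF was read with excitation at 320 nm and emission at 615 nm.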

[3] = 3.33 μM protein target, 1:7.5 protein to compound ratio (compounds 1-852)
[4] = 1 μM protein target, 1:5 protein to compound ratio (compounds 853-1279)

Cys242 in human PIK3CA (157-299), sequence (P42336 157-299): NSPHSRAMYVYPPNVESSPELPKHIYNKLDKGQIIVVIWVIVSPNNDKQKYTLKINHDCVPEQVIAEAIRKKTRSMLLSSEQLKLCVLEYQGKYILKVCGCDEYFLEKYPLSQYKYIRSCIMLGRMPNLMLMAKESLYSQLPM

| SMILES | % of modification [1, 3] | IC50 ([2]; Compounds 10-999) [nM] | % of modification [1, 4] | IC50 ([2]; Compounds 1000-1279) [nM] |
| --- | --- | --- | --- | --- |
| C=CC(=O)N1CC[C@@H](n2cc(-c3nc(-c4cnn(CC(F)F)c4)c4ccsc4c3-c3c(F)cc(F)cc3OC(C)C)cn2)C1 [Compound 387] | A (percent of modification of PIK3CA protein ≥75%) | 100 to 1000 |  |  |
| C=CC(=O)N1CCn2nc(-c3nc(-c4cnc5c(c4)CN(C)CC5(F)F)c4ccsc4c3-c3c(F)cc(F)cc3OCCO)cc2C1C (stereo not drawn) [Compound 1196] |  |  | A (percent of modification of PIK3CA protein ≥75%) | < 100 |
| C=CC(=O)N1CCn2nc(-c3nc(-c4cn(C)cn4)c4ccsc4c3-c3c(F)cc(F)cc3OCCO)cc2[C@@H]1C [Compound 781] | A (percent of modification of PIK3CA protein ≥75%) | < 100 |  |  |
| C=CC(=O)N1Cc2cc(-c3nc(-c4ccc5c(c4)C(=O)NC5)c4ccsc4c3-c3c(F)cc(F)cc3OC)nn2C[C@H]1C [Compound 837] | A (percent of modification of PIK3CA protein ≥75%) | < 100 |  |  |
| C=CC(=O)N1Cc2cc(-c3nc(-c4cnn(C)c4)c4ccsc4c3-c3c(F)cc(F)cc3OC(C)C)nn2C[C@H]1C [Compound 457, 1-((R)-2-((S)-7-(2,4-difluoro-6-isopropoxyphenyl)-4-(1-methyl-1H-pyrazol-4-yl)thieno[3,2-c]pyridin-6-yl)-6-methyl-6,7-dihydropyrazolo[1,5-a]pyrazin-5(4H)-yl)prop-2-en-1-one] | A (percent of modification of PIK3CA protein ≥75%) | < 100 |  |  |
| C=CC(=O)N1CCn2nc(-c3nc(-c4ccc(CCN(C)C)cc4)c4ccsc4c3-c3c(F)cc(F)cc3OCCOC)cc2C1C (stereo not drawn) [Compound 1060] |  |  | A (percent of modification of PIK3CA protein ≥75%) | < 100 |
| C=CC(=O)N1CCn2nc(-c3nc(-c4ccc5c(c4)C(=O)NC5)c4ccsc4c3-c3c(F)cc(F)cc3OCC(C)O)cc2C1C (stereo not drawn) [Compound 879] |  | < 100 | A (percent of modification of PIK3CA protein ≥75%) |  |
| C=CC(=O)N1CCn2nc(-c3nc(-c4cnc5c(cnn5C)c4)c4ccsc4c3-c3c(F)cc(F)cc3OCCO)cc2C1C (stereo not drawn) [Compound 877] |  | < 100 | A (percent of modification of PIK3CA protein ≥75%) |  |
| C=CC(=O)N1CC(n2cc(-c3nc(C4CCN(S(C)(=O)=O)CC4)c4ccsc4c3-c3ccc(F)cc3OC)cn2)C1 [Compound 296] | B (50%<percent of modification <75%) | 1000 to 3000 |  |  |
| C=CC(=O)N1CCn2nc(-c3nc(-c4cnnc(C)c4)c4ccsc4c3-c3c(F)cc(F)cc3OC[C@@H](C)O)cc2[C@H]1C [Compound 751] | A (percent of modification of PIK3CA protein ≥75%) | < 100 |  |  |
| C=CC(=O)N1CCn2nc(-c3nc(-c4ccc5c(c4)CN(CC(F)(F)F)CC5)c4ccsc4c3-c3c(F)cc(F)cc3OCCOC)cc2C1C (stereo not drawn) [Compound 1252] |  |  | A (percent of modification of PIK3CA protein ≥75%) | < 100 |
| C=CC(=O)N1CCn2nc(-c3nc(-c4ccc5c(cnn5C)c4F)c4ccsc4c3-c3c(F)cc(F)cc3OCCO)cc2[C@H]1C (single isomer, unassigned) [Compound 1145] |  |  | A (percent of modification of PIK3CA protein ≥75%) | < 100 |
| C=CC(=O)N1CCn2nc(-c3nc(-c4ccc5c(c4)CCN(C)C5)c4ccsc4c3-c3ccc(F)cc3OC(C)C)nc2C1 [Compound 271] | A (percent of modification of PIK3CA protein ≥75%) | < 100 |  |  |
| C=CC(=O)N1CC(n2cc(-c3nc(-c4ccn(C)c(=O)c4)c4ccsc4c3-c3ccc(F)cc3OC)cn2)C1 [Compound 179] | A (percent of modification of PIK3CA protein ≥75%) | < 100 |  |  |
| C=CC(=O)N1CCc2nc(-c3nc(N4CCC(N(C)C)CC4)c4ccsc4c3-c3ccc(F)cc3OCCOC)sc2C1 [Compound 175] | A (percent of modification of PIK3CA protein ≥75%) | 100 to 1000 |  |  |
| C=C(F)C(=O)N1CCn2nc(-c3nc(-c4ccc5c(c4)[C@@H](O)CC5)c4ccsc4c3-c3c(F)cc(F)cc3OC(C)C)cc2C1 [Compound 354] | B (50%<percent of modification <75%) | < 100 |  |  |
| C=CC(=O)N1CCc2ncc(-c3nc(-c4ccn(C)c(=O)c4)c4ccsc4c3-c3c(F)cc(F)cc3OCCOC)cc2C1 [Compound 374] | A (percent of modification of PIK3CA protein ≥75%) | < 100 |  |  |
| C=CC(=O)N1CCn2nc(-c3nc(-c4ccc(C5(C(=O)NC6CN(C)C6)CC5)cc4)c4ccsc4c3-c3c(F)cc(F)cc3OCCOC)cc2C1C (stereo not drawn) [Compound 1157] |  |  | A (percent of modification of PIK3CA protein ≥75%) | 100 to 1000 |
| C=CC(=O)N1CCn2nc(-c3nc(-c4ccc5c(c4)CN(C)CC54CC4)c4ccsc4c3-c3c(F)cc(F)cc3OCCOC)cc2C1C (stereo not drawn) [Compound 1113] |  |  | A (percent of modification of PIK3CA protein ≥75%) | < 100 |
| C=CC(=O)N1CC(n2cc(-c3nc(-c4ccc(S(=O)(=O)NC)cc4)c4ccsc4c3-c3ccc(F)cc3OC)cn2)C1 [Compound 196] | A (percent of modification of PIK3CA protein ≥75%) | 100 to 1000 |  |  |
| C=CC(=O)N1CCn2nc(-c3nc(-c4cn(C)cn4)c4ccsc4c3-c3c(F)cc(F)cc3OCCOC)cc2[C@H]1C [Compound 741] | A (percent of modification of PIK3CA protein ≥75%) | < 100 |  |  |
| C=CC(=O)N1CCn2nc(-c3nc(-c4cncc(Cl)c4)c4ccsc4c3-c3ccc(F)cc3OCCOC)cc2C1 [Compound 203] | A (percent of modification of PIK3CA protein ≥75%) | < 100 |  |  |
| C=CC(=O)N1CCc2nc(-c3nc(-c4ccc(C5(N)COC5)cc4)c4ccsc4c3-c3c(F)cc(F)cc3OCCOC)sc2C1 [Compound 426] | A (percent of modification of PIK3CA protein ≥75%) | < 100 |  |  |
| C=C(F)C(=O)N1CC(n2cc(-c3nc(-c4ccc5c(c4)CCNC5)c4ccsc4c3-c3ccc(F)cc3OC)cn2)C1 [Compound 114] | A (percent of modification of PIK3CA protein ≥75%) | 1000 to 3000 |  |  |
| C=CC(=O)N1CCn2nc(-c3nc(N4CCCCC4)c4ccsc4c3-c3ccc(F)cc3OCC3CCN(C)C(=O)C3)cc2C1 (stereo not drawn) [Compound 243] | A (percent of modification of PIK3CA protein ≥75%) | 100 to 1000 |  |  |
| CC#CC(=O)N1CC(n2cc(-c3nc(-c4ccc5c(c4)CCNC5)c4ccsc4c3-c3ccc(F)cc3OC)cn2)C1 [Compound 113] | D (percent of modification <25%) | > 3000 |  |  |
| C=CC(=O)N1CCn2nc(-c3nc(-c4ccc(=O)n(CC(F)F)c4)c4ccsc4c3-c3c(F)cc(F)cc3OCCO)cc2C1C (stereo not drawn) [Compound 981] |  | < 100 | A (percent of modification of PIK3CA protein ≥75%) |  |
| C=CC(=O)N1CCn2nc(-c3nc(-c4ccc5c(c4)CN(C)CC54CC4)c4ccsc4c3-c3c(F)cc(F)cc3OCCO)cc2C1C (stereo not drawn) [Compound 1114] |  |  | A (percent of modification of PIK3CA protein ≥75%) | < 100 |
| C=CC(=O)N1CCc2nc(-c3nc(-c4cnn(C)c4N)c4ccsc4c3-c3c(F)cc(F)cc3OC(C)C)sc2C1 [Compound 351] | A (percent of modification of PIK3CA protein ≥75%) | 100 to 1000 |  |  |
| C=CC(=O)N1CCC(n2cc(-c3nc(-c4ccc5c(c4)CS(=N)(=O)C5)c4ccsc4c3-c3ccc(F)cc3OCCOC)cn2)CC1 (stereo not drawn) [Compound 94] | A (percent of modification of PIK3CA protein ≥75%) | < 100 |  |  |
